# Test results taken from publication PMC4448979 (Pharmacology Research & Perspectives, 2015).
# What was measured:
# Format in all cases: cell-based
# [1] = target: T1, human P2X7 receptor (HEK-hP2X7) (Homo sapiens, UniProt Q99572); experiment: YoPro1 dye uptake, fluorescence plate reader; conditions: agonist; HEK-hP2X7 cells
# T1 sequence (Q99572 1-595): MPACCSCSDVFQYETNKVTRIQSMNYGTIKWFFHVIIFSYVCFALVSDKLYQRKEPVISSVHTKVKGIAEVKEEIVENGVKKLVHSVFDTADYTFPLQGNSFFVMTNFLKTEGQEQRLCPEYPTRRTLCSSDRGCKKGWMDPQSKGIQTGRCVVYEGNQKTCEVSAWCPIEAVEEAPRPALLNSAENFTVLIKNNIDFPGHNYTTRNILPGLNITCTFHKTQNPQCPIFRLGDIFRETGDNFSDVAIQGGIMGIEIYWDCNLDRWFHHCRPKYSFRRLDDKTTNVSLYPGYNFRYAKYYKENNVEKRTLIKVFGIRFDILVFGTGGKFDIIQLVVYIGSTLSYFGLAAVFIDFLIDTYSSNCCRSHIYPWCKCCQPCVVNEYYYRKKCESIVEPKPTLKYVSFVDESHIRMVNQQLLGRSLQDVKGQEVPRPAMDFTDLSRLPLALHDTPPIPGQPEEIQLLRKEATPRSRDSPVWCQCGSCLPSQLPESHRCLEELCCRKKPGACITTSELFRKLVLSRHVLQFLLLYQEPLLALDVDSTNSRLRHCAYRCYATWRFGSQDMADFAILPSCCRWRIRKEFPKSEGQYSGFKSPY
# [2] = target: T1, human P2X7 receptor (HEK-hP2X7); experiment: YoPro1 dye uptake, fluorescence plate reader
# [3] = target: T2, human P2X4 (1321N1) (Homo sapiens, UniProt Q99571); experiment: Fluo-4 calcium flux, fluorescence plate reader; conditions: 1321-N1, read-out: decrease in remaining activity at 10 μmol/L
# T2 sequence (Q99571 1-388): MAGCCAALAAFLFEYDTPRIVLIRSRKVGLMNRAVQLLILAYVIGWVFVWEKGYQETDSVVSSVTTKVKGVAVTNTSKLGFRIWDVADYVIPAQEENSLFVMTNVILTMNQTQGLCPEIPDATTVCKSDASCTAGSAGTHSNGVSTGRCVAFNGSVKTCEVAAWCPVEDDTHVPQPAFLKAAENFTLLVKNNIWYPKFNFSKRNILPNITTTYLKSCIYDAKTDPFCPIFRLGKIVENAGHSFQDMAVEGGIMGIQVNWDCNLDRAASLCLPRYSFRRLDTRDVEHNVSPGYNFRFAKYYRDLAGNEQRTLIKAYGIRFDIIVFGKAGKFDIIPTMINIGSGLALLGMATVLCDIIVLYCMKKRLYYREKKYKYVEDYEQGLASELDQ
# [4] = target: T3, P2X7 receptor of mouse microglia BV2 cells (Mus musculus, UniProt Q9Z1M0); experiment: whole-cell patch clamp; conditions: antagonist; 100 μmol/L BzATP; -70 mV, room temperature, pH 7.4
# T3 sequence (Q9Z1M0 1-595): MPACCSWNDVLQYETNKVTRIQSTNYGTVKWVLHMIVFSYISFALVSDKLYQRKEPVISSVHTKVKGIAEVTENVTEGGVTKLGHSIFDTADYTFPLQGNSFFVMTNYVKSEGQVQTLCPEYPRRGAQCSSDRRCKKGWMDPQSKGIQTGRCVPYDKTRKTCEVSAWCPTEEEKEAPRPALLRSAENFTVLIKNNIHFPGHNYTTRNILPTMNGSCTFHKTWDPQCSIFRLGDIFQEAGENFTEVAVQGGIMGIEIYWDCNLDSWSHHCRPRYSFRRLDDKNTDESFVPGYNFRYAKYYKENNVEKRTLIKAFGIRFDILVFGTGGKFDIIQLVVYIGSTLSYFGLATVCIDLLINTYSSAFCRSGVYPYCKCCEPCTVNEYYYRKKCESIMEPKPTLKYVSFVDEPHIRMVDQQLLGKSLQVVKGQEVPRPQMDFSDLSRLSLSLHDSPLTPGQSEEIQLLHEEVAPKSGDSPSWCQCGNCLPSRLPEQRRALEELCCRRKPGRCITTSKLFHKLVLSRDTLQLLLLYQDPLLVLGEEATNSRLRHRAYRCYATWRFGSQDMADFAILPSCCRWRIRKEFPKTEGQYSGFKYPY
# [5] = target: T1, human P2X7 receptor (HEK-hP2X7); experiment: cytosensor, cell impedance
smiles,measurement,setting,value
Nc1ncnc2c1ncn2[C@@H]1O[C@H](COP(=O)(O)OP(=O)(O)OP(=O)(O)O)[C@@H](O)[C@H]1O [ATP],"YoPro1 dye uptake, fluorescence plate reader",[1],confirmed using the YoPro1 uptake assay upon stimulation of the target cells with ATP
O=C(NCC12CC3CC(CC(C3)C1)C2)c1cc(CCCNCCCO)ccc1Cl [AZD9056],IC50,[2],0.0112 µM
same,remaining activity at 10 µM,[3],27%
same,IC50,[4],1 to 3 µM
"Nc1ncnc2c1ncn2[C@@H]1O[C@H](COP(=O)(O)OP(=O)(O)OP(=O)(O)O)[C@@H](OC(=O)c2ccc(C(=O)c3ccccc3)cc2)[C@H]1O [BzATP, 2′, 3′–O–(4-benzoylbenzoyl)–ATP]",EC50,[5],9.6 ± 1.8 µM
